{"source": "patent US20240408033A1", "about": "“CELL-DERIVED NANOVESICLES FOR IN VIVO TRANSPORT AND DELIVERY OF THERAPEUTIC MATERIALS” (The Board of Trustees of the Leland Stanford Junior …, priority 2021, published 2024)", "tested_on": "GL-26 GBM cells", "test": "PI staining-based apoptosis FACS analysis, GL-26 cells", "settings": "TMZ at 250 μM, alone or with mpEVs (50 pmol)", "source_text": "We evaluated the therapeutic potential of miRNA-loaded mpEVs (50 pmol) in GL-26 cells in combination with TMZ and quantified the chemosensitizing effects of the miRNA-loaded mpEVs using PI staining-based FACS analysis (FIG. 13).\nTo investigate the chemosensitizing effect of miRNAs-loaded mpEVs in the absence and presence of TMZ at different concentrations, we seeded the U87 glioma cells at a density of 1×10^5 cells per well in 12-well plates. Next, we treated the cells with mpEVs from control and CXCR4-NSCs with and without loaded miRNAs. On the following day, we treated the cells with TMZ at different concentrations (0 μM, 250 μM, and 500 μM) for each kind of EV. At 24 h after TMZ administration, we collected the cells and fixed in ice cold 70% ethanol at −20° C. for 30 min. We then washed the fixed cells once with 2 ml of PBS and stained with PI (15 nM) in the presence of RNase A (10 mg/ml) and 0.01% Triton-X100 (Life Technologies, Grand Island, NY, USA). […] Likewise, the chemosensitizing effect of miRNA loaded mpEVs for TMZ therapy was also investigated against GL26 cells by using a similar procedure.", "data": [{"smiles": "Cn1nnc2c(C(N)=O)ncn2c1=O", "note": "[TMZ, temozolomide]", "values": [{"measurement": "apoptotic cells", "result": 13.9, "unit": "%"}]}]}
